Read-outs that look alike come from different tables or passages of the source.
Assays:
[1] = molecular target: Endothelial lipase (EL) (Homo sapiens (Human), UniProt Q9Y5X9); assay: EL assay: endothelial lipase activity with fluorescent substrate A10070 in DMPG vesicles; assay type: biochemical
In short: (§1)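 Substrate A10070 sits in sonicated DMPG vesicles at 0.11 mole fraction. Lipase and compound preincubated 30 min, 37° C, in HEPES pH 8.0 buffer with CaCl2.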

[2] = molecular target: hepatic lipase (HL) (Homo sapiens (Human), UniProt P11150); assay: HL assay: hepatic lipase activity with fluorescent substrate A10070 in DMPG vesicles; assay type: biochemical
In short: as §1

[3] = EL from conditioned media of HT-1080 cells, 30 min incubation with compound at 37° C., A10070/DMPG vesicles
[4] = HL partially purified from conditioned media of COS cells, 30 min incubation with compound at 37° C., A10070/DMPG vesicles

Endothelial lipase (EL), sequence (Q9Y5X9 21-500): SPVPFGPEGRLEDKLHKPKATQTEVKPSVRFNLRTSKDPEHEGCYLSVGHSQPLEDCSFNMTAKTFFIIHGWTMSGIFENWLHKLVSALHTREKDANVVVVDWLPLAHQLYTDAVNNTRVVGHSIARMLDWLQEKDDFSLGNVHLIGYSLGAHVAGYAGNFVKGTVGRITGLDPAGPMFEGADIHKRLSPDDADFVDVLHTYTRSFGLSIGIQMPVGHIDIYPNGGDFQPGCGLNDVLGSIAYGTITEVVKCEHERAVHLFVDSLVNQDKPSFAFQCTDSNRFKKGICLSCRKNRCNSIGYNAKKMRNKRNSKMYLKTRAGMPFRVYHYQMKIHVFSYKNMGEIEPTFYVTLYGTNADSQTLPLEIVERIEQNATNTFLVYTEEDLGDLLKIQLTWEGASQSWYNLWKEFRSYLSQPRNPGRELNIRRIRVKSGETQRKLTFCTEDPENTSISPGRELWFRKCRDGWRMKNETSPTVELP
hepatic lipase (HL), sequence (P11150 23-499, species assumed): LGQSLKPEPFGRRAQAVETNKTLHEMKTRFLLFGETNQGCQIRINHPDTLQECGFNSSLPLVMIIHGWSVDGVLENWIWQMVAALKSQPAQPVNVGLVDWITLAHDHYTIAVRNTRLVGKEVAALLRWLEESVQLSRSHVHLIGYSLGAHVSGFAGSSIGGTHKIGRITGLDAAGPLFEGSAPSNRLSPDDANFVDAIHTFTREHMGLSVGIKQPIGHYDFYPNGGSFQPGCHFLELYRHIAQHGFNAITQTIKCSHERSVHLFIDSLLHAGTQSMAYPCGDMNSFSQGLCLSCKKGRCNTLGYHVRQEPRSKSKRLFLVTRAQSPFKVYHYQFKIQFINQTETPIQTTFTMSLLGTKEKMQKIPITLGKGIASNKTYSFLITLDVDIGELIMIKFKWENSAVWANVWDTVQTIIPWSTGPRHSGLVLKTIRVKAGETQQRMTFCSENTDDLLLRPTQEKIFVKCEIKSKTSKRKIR

Compound | IC50 [1] [µM] | IC50 [2] [µM] | IC50 [1, 3] [µM] | IC50 [2, 4] [µM]
CS(=O)(=O)C(C(=O)NCCS(N)(=O)=O)c1nc2ccc(-c3cccc(C#N)c3)cc2s1 (stereo not drawn) [Example B51, 2-(6-(3-cyanophenyl)-1,3-benzothiazol-2-yl)-2-(methylsulfonyl)-N-(2-sulfamoylethyl)acetamide] | < 0.01 | < 0.01 |  | 
COCCS(=O)(=O)C(C(=O)NCc1nnc(C)o1)c1nc2cc(F)c(-c3ccc(C(=O)N(C)C)c(F)c3)cc2s1 (stereo not drawn) [Example B259, 2-fluoro-4-{5-fluoro-2-[(2-methoxyethanesulfon-yl)({[(5-methyl-1,3,4-oxadiazol-2-yl)methyl]car-bamoyl})methyl]-1,3-benzothiazol-6-yl}-N,N-dimethylbenzamide] | 0.121 | 0.208 |  | 
CS(=O)(=O)C(C(=O)NCCS(N)(=O)=O)c1nc2ccc(-c3ccc(C(=O)NC4COC4)cc3)cc2s1 (stereo not drawn) [Example B178, 4-(2-(1-(methylsulfonyl)-2-oxo-2-((2-sulfamoylethyl)a-mino)ethyl)-1,3-benzothiazol-6-yl)-N-3-oxetanylbenzamide] | < 0.01 | 0.091 |  | 
Cc1nnc(CNC(=O)C(c2nc3ccc(-c4ccc(C(=O)N5CC(C)(O)C5)cc4)cc3s2)S(C)(=O)=O)o1 (stereo not drawn) [Example B263, 2-{6-[4-(3-hydroxy-3-methylazetidine-1-carbonyl)phenyl]-1,3-benzothiazol-2-yl}-2-methanesulfonyl-N-[(5-methyl-1,3,4-oxadiazol-2-yl)methyl]acetamide] | 0.077 | 10 |  | 
CC(F)(F)CNC(=O)c1cccc(-c2ccc3nc(C(C(=O)NCCS(N)(=O)=O)S(=O)(=O)CCC(F)(F)F)sc3c2)c1 (stereo not drawn) [Example B339, N-(2,2-difluoropropyl)-3-(2-{[(2-sulfamoylethyl)car-bamoyl](3,3,3-trifluoropropanesulfon-yl)methyl}-1,3-benzothiazol-6-yl)benzamide] | 0.0097 | 0.0492 |  | 
CCS(=O)(=O)C(C(=O)NCc1nnc(C)o1)c1nc2cc(F)c(-c3ccccc3)cc2s1 (stereo not drawn) [Example B151, 2-(ethylsulfonyl)-2-(5-fluoro-6-phenyl-1,3-benzothiazol-2-yl)-N-((5-methyl-1,3,4-oxadiazol-2-yl)methyl)acetamide] | < 0.01 | 0.047 |  | 
CS(=O)(=O)C(C(=O)NCCS(N)(=O)=O)c1nc2cc(-c3cccnc3F)ccc2s1 (stereo not drawn) [Example B383, 2-[5-(2-fluoropyridin-3-yl)-1,3-benzothiazol-2-yl]-2-methanesulfonyl-N-(2-sulfamoylethyl)acetamide] | 0.0007 | 0.013 |  | 
COCCN(C)C(=O)c1ccc(-c2ccc3nc(C(C(=O)NCCS(N)(=O)=O)S(=O)(=O)Cc4ccc(OC(F)(F)F)cc4)sc3c2)cc1 (stereo not drawn) [Example B289, N-(2-methoxyethyl)-N-methyl-4-(2-{[(2-sulfamoyl-ethyl)carbamoyl][4-(trifluoromethoxy)phen-yl]methanesulfonyl-methyl}-1,3-benzothiazol-6-yl)benzamide] | 0.0031 | 0.0217 |  | 
COC1CN(C(=O)c2ccc(-c3ccc4nc(C(C(=O)NCCS(N)(=O)=O)S(=O)(=O)Cc5ccc(C(F)(F)F)cc5)sc4c3)cc2)C1 (stereo not drawn) [Example B299] | 0.0056 | 0.0742 |  | 
NS(=O)(=O)CCNC(=O)C(c1nc2ccc(-c3ccc(C(=O)N4CCOCC4)cc3)cc2s1)S(=O)(=O)Cc1ccccc1 (stereo not drawn) [Example B102, 2-(benzylsulfonyl)-2-(6-(4-(4-morpholinylcarbonyl)phen-yl)-1,3-benzothiazol-2-yl)-N-(2-sulfamoylethyl)a-cetamide] | 0.018 | 5.29 |  | 
COCCS(=O)(=O)C(C(=O)NCc1cc(C(C)C)no1)c1nc2ccc(-c3ccccc3)cc2s1 (stereo not drawn) [Example B232, 2-(2-methoxyethane-sulfonyl)-2-(6-phenyl-1,3-benzothiazol-2-yl)-N-{[3-(propan-2-yl)-1,2-oxazol-5-yl]methyl}acetamide] | 0.0459 | 0.0008 |  | 
NC(=O)c1cccc(-c2ccc3nc(C(C(=O)NCCS(N)(=O)=O)S(=O)(=O)CCC(F)(F)F)sc3c2)c1 (stereo not drawn) [Example B331, 3-(2-{[(2-sulfamoylethyl)car-bamoyl](3,3,3-trifluoro-propanesulfonyl)methyl}-1,3-benzothiazol-6-yl)benzamide] | 0.0725 | 0.214 |  | 
NS(=O)(=O)CCNC(=O)C(c1nc2ccc(-c3cccc(C(=O)N4CCOCC4)c3)cc2s1)S(=O)(=O)CCC(F)(F)F (stereo not drawn) [Example B333, 2-{6-[3-(morpholine-4-carbonyl)phenyl]-1,3-benzothiazol-2-yl}-N-(2-sulfamoylethyl)-2-(3,3,3-trifluoropropanesulfon-yl)acetamide] | 0.0098 | 0.119 |  | 
COCCS(=O)(=O)C(C(=O)NCc1nnc(C)o1)c1nc2ccc(-c3ccccc3)cc2s1 (stereo not drawn) [Example B204, 2-(2-methoxyethane-sulfonyl)-N-[(5-methyl-1,3,4-oxadiazol-2-yl)methyl]-2-(6-phenyl-1,3-benzothiazol-2-yl)a-cetamide] | 0.0237 | 0.0175 |  | 
CC(C)(C)OC(=O)c1ccc(-c2ccc3nc(C(C(=O)NCCS(N)(=O)=O)S(=O)(=O)Cc4ccccc4)sc3c2)cc1 (stereo not drawn) [Example B276, tert-butyl 4-(2-{phenylmethanesulfonyl[(2-sulfamoylethyl)car-bamoyl]methyl)-1,3-benzothiazol-6-yl)benzoate] | 0.0011 | 0.0008 |  | 
CS(=O)(=O)C(C(=O)NCCS(N)(=O)=O)c1nc2ccc(-c3cc(F)cc(Cl)c3)cc2s1 (stereo not drawn) [Example B209, 2-[6-(3-chloro-5-fluorophenyl)-1,3-benzothiazol-2-yl]-2-methanesulfonyl-N-(2-sulfamoylethyl)acetamide] | 0.008 | 0.0139 |  | 
Cc1cc2nc(C(C(=O)NCCS(N)(=O)=O)S(C)(=O)=O)sc2cc1-c1ccc(C(=O)N2CCOCC2)cc1 (stereo not drawn) [Example B350, 2-methanesulfonyl-2-{5-methyl-6-[4-(morpholine-4-carbonyl)phenyl]-1,3-benzothiazol-2-yl}-N-(2-sulfamoylethyl)acetamide] | 0.0032 | 0.0905 |  | 
CC(C)Cn1cc(-c2ccc3nc(C(C(=O)NCCS(N)(=O)=O)S(C)(=O)=O)sc3c2)cn1 (stereo not drawn) [Example B67, 2-[6-(1-isobutyl-1H-pyrazol-4-yl)-1,3-benzothiazol-2-yl]-2-(methylsulfonyl)-N-(2-sulfamoylethyl)acetamide] | < 0.01 | 0.041 |  | 
CC1(O)CCN(C(=O)c2cccc(-c3ccc4nc(C(C(=O)NCCS(N)(=O)=O)S(=O)(=O)CCC(F)(F)F)sc4c3)c2)CC1 (stereo not drawn) [Example B341, 2-{6-[3-(4-hydroxy-4-methylpiperidine-1-carbonyl)phenyl]-1,3-benzothiazol-2-yl}-N-(2-sulfamoylethyl)-2-(3,3,3-trifluoropropanesulfon-yl)acetamide] | 0.006 | 0.112 |  | 
CC(C)S(=O)(=O)C(C(=O)NCCS(N)(=O)=O)c1nc2c(F)cc(-c3cccc(C(=O)OC(C)(C)C)c3)cc2s1 (stereo not drawn) [Example B280, tert-butyl 3-{4-fluoro-2-[(propane-2-sulfonyl)[(2-sul-famoylethyl)carbamoyl]meth-yl]-1,3-benzothiazol-6-yl}benzoate] | 0.0048 | 0.0029 |  | 
Cc1cc2nc(C(C(=O)NCCS(N)(=O)=O)S(C)(=O)=O)sc2cc1-c1ccc(C(=O)N2CC(C)(O)C2)cc1 (stereo not drawn) [Example B349, 2-{6-[4-(3-hydroxy-3-methylazetidine-1-carbonyl)phenyl]-5-methyl-1,3-benzothiazol-2-yl}-2-methanesulfonyl-N-(2-sulfamoylethyl)a-cetamide] | 0.0023 | 0.347 |  | 
NS(=O)(=O)CCNC(=O)C(c1nc2ccc(-c3ccc(C(=O)N4CC(F)C4)cc3)cc2s1)S(=O)(=O)Cc1ccc(OC(F)(F)F)cc1 (stereo not drawn) [Example B355, 2-{6-[4-(3-fluoroazetidine-1-carbonyl)phenyl]-1,3-benzothiazol-2-yl}-N-(2-sulfamoylethyl)-2-{[4-(trifluoromethoxy)phen-yl]methanesulfonyl}a-cetamide] | 0.0066 | 0.235 |  | 
CS(=O)(=O)C(C(=O)NCCS(N)(=O)=O)c1nc2ccc(-c3c[nH]nc3C(F)(F)F)cc2s1 (stereo not drawn) [Example B78, 2-(methylsulfonyl)-N-(2-sulfamoylethyl)-2-(6-(3-(trifluoromethyl)-1H-pyrazol-4-yl)-1,3-benzothiazol-2-yl)a-cetamide] | < 0.01 | 0.068 |  | 
CS(=O)(=O)C(C(=O)NCCS(N)(=O)=O)c1nc2cc(C(=O)O)ccc2s1 (stereo not drawn) [Example B392, 2-(1-(Methylsulfonyl)-2-oxo-2-((2-sulfamoylethyl)amino)ethyl)benzo[d]thiazole-5-carboxylic acid] |  |  | 0.0031 | 0.0927
COCCNC(=O)c1ccc(-c2cc3sc(C(C(=O)NCCS(N)(=O)=O)S(=O)(=O)C(C)C)nc3cc2C(F)(F)F)cc1 (stereo not drawn) [Example B269, N-(2-methoxyethyl)-4-{2-[(propane-2-sulfonyl)[(2-sul-famoylethyl)carbamoyl]meth-yl]-5-(trifluoro-methyl)-1,3-benzothiazol-6-yl}benzamide] | 0.01 | 0.312 |  | 
COCCOC(=O)Nc1ccc(-c2ccc3nc(C(C(=O)NCCS(N)(=O)=O)S(C)(=O)=O)sc3c2)cc1 (stereo not drawn) [Example B64, 2-methoxyethyl(4-(2-(1-(methylsulfonyl)-2-oxo-2-((2-sulfamoylethyl)amino)eth-yl)-1,3-benzothiazol-6-yl)phenyl)carbamate] | 0.0005 | 0.0019 |  | 
CS(=O)(=O)C(C(=O)NCCS(N)(=O)=O)c1nc2ccc(-c3nnc(-c4ccc(F)cc4)o3)cc2s1 (stereo not drawn) [Example B395, 2-(6-(5-(4-Fluorophenyl)-1,3,4-oxadiazol-2-yl)benzo[d]thiazol-2-yl)-2-(methylsulfonyl)-N-(2-sulfamoylethyl)acetamide] |  |  | 0.148 | 0.275
